Measured values taken from US20230144211A1, “ANTIFOLATE LINKER-DRUGS AND ANTIBODY-DRUG CONJUGATES” (Byondis B.V., priority 2020, published 2023).

Legend:
BxPC-3 cells = experiment: In vitro cell viability assay (CellTiter-Glo, 6 days); type: cell-based; details: Homo sapiens, free antifolate drugs, Table 1d
Procedure: (§1) FaDu, BxPC-3, HeLa, MV4-11, and RAJI cell lines were obtained from Deutsche Sammlung von Mikroorganismen und Zellkulturen (Leipzig, Germany). Jurkat NucLight Red cells were obtained from Essen BioScience Inc. (Ann Arbor, Mich., USA). SK-BR-3 and SK-OV-3 cells were cultured in McCoys 5A medium (Lonza; Walkersville, Md., USA) supplemented with 10% v/w Fetal Bovine Serum (FBS), Heat-inactivated (HI) (Gibco-Life Technologies; Carlsbad, Calif.) and 80 U/mL Pen/Strep (Gibco-Life Technologies), at 37° C. in a humidified incubator under 5% CO2 atmosphere. SW-620 cells were similarly maintained in RPMI 1640 medium (Lonza), containing 10% v/w FBS HI and 80 U/mL Pen/Strep. A-549 cells were similarly maintained in F-12K Nutrient Mixture (1×) (Gibco-Life Technologies) media supplemented with 80 U/mL Pen/Strep and 5% v/w FBS, which was Qualified (Q) (Gibco-Life Technologies). BT-474 and AU-565 cells were similarly maintained in RPMI 1640 medium (Lonza), containing 10% v/w FBS, which was Qualified (Q) (Gibco-Life Technologies), and 80 U/mL Pen/Strep. […] Jurkat NucLight Red cells were similarly maintained in RPMI 1640 medium (Lonza), containing 10% v/w FBS HI, 80 U/mL Pen/Strep and 0.5 μg/mL Puromycin (Gibco-Life Technologies). FaDu cells were cultured in EMEM medium (Lonza) supplemented with 10% v/w FBS HI (Gibco-Life Technologies), 1× GlutaMAX (Gibco-Life Technologies), and 80 U/mL Pen/Strep (Gibco-Life Technologies), at 37° C. in a humidified incubator under 5% CO2 atmosphere.
(§2) After an overnight incubation, 10 serial log 10 dilutions of the free drugs were made in DMSO (Sigma-Aldrich). These free drug dose-response curves were 10-times further diluted in complete growth medium. For the ADCs according to the invention 10 serial log 10 dilutions were made in complete growth medium. 10 μL of a composition comprising a free drug or an ADC according to the invention was added to the assay plate (final DMSO content for free drugs was 1%). […] […] Percentage cell survival was calculated by dividing the measured luminescence for each free drug or ADC according to the concentration with the average mean of untreated cells (1% or 0.1% DMSO control (for free drugs) or 100% complete growth medium (for ADCs)) multiplied by 100.
(§3) Curves were fitted by non-linear regression using the sigmoidal dose-response equation with variable slope (four parameters) using curve-fitting software (GraphPad Prism, version 9.4.0 for Windows, GraphPad, San Diego, Calif. or Electronic Laboratory Notebook (ELN) add-in BioAssay, version 19.1.0.0218, Perkin Elmer, Waltham, Mass.). Relative IC50 values were calculated as the concentration that gives a response halfway between bottom and top of the curve, when using a 4-parameter logistic fit. Data were reported as mean IC50 value of at least one experiment performed in duplicate.

FaDu cells = experiment: as above; type: cell-based; details: Homo sapiens, free antifolate drugs, Table 1d
Procedure: as §1, §2, §3

[1] = test system: Jurkat NucLight Red cells; experiment: as above; type: cell-based, human; details: Homo sapiens, Jurkat, free antifolate drugs
Procedure: as §1
(§4) After an overnight incubation, 10 serial log 10 dilutions of the free drugs were made in DMSO (Sigma-Aldrich). These free drug dose-response curves were 10-times further diluted in complete growth medium. For the ADCs according to the invention 10 serial log 10 dilutions were made in complete growth medium. 10 μL of a composition comprising a free drug or an ADC according to the invention was added to the assay plate (final DMSO content for free drugs was 1%). […] Cell viability was assessed after 6 days using a luminescent assay kit (CellTiter-Glo™ (CTG), Promega Corporation) according to the manufacturer's instructions. Percentage cell survival was calculated by dividing the measured luminescence for each free drug or ADC according to the concentration with the average mean of untreated cells (1% or 0.1% DMSO control (for free drugs) or 100% complete growth medium (for ADCs)) multiplied by 100.
as §3

SK-BR-3 cells = experiment: as above; type: cell-based, human; details: Homo sapiens
Procedure: as §1, §2, §3

BT-474 cells = experiment: as above; type: cell-based; details: Homo sapiens, free antifolate drugs, Table 1a, # no full dose-response curve
Procedure: as §1, §2, §3

A-549 cells = experiment: as above; type: cell-based; details: Homo sapiens, A549; free antifolate drugs, Table 1a; $ steep hillslope
Procedure: (§5) Human tumor cell lines SK-BR-3, SW-620, A-549, BT-474, Jurkat Clone E6-1, AU-565, and SK-OV-3 were obtained from American Type Culture Collection (Rockville, Md., USA). FaDu, BxPC-3, HeLa, MV4-11, and RAJI cell lines were obtained from Deutsche Sammlung von Mikroorganismen und Zellkulturen (Leipzig, Germany). Jurkat NucLight Red cells were obtained from Essen BioScience Inc. (Ann Arbor, Mich., USA). SK-BR-3 and SK-OV-3 cells were cultured in McCoys 5A medium (Lonza; Walkersville, Md., USA) supplemented with 10% v/w Fetal Bovine Serum (FBS), Heat-inactivated (HI) (Gibco-Life Technologies; Carlsbad, Calif.) and 80 U/mL Pen/Strep (Gibco-Life Technologies), at 37° C. in a humidified incubator under 5% CO2 atmosphere. SW-620 cells were similarly maintained in RPMI 1640 medium (Lonza), containing 10% v/w FBS HI and 80 U/mL Pen/Strep. A-549 cells were similarly maintained in F-12K Nutrient Mixture (1×) (Gibco-Life Technologies) media supplemented with 80 U/mL Pen/Strep and 5% v/w FBS, which was Qualified (Q) (Gibco-Life Technologies). BT-474 and AU-565 cells were similarly maintained in RPMI 1640 medium (Lonza), containing 10% v/w FBS, which was Qualified (Q) (Gibco-Life Technologies), and 80 U/mL Pen/Strep. Jurkat Clone E6-1, BxPC-3, HeLa, MV4-11, and RAJI cells were similarly maintained in RPMI 1640 medium (Lonza), containing 10% v/w FBS HI and 80 U/mL Pen/Strep. Jurkat NucLight Red cells were similarly maintained in RPMI 1640 medium (Lonza), containing 10% v/w FBS HI, 80 U/mL Pen/Strep and 0.5 μg/mL Puromycin (Gibco-Life Technologies). FaDu cells were cultured in EMEM medium (Lonza) supplemented with 10% v/w FBS HI (Gibco-Life Technologies), 1× GlutaMAX (Gibco-Life Technologies), and 80 U/mL Pen/Strep (Gibco-Life Technologies), at 37° C. in a humidified incubator under 5% CO2 atmosphere.
as §4, with “Cells in complete growth medium were plated in 96-well plates (90 μL/well) and incubated at 37° C., 5% CO2 at the following cell densities: 6500 SK-BR-3, 4000 SW-620, 2500 A-549, 10000 BT-474, 3000 Jurkat Clone E6-1, 5000 AU-565, 1250 FaDu, 1250 BxPC-3, 1000 HeLa, 7500 MV4-11, 1000 RAJI, 3000 Jurkat NucLight Red, and 4000 SK-OV-3 cells per well. After” for “After”
as §3

Human tumor cell lines = experiment: In vitro cell viability assays, free antifolate drugs, overall comparison; type: cell-based; details: compared with talotrexin or parent compound
Procedure: as §5
as §4, with “Cells in complete growth medium were plated in 96-well plates (90 μL/well) and incubated at 37° C., 5% CO2 at the following cell densities: 6500 SK-BR-3, 4000 SW-620, 2500 A-549, 10000 BT-474, 3000 Jurkat Clone E6-1, 5000 AU-565, 1250 FaDu, 1250 BxPC-3, 1000 HeLa, 7500 MV4-11, 1000 RAJI, 3000 Jurkat NucLight Red, and 4000 SK-OV-3 cells per well. After” for “After”
as §3

HeLa cells = experiment: In vitro cell viability assay (CellTiter-Glo, 6 days); type: cell-based; details: Homo sapiens, free antifolate drugs, Table 1d
Procedure: as §5
as §4, with “Cells in complete growth medium were plated in 96-well plates (90 μL/well) and incubated at 37° C., 5% CO2 at the following cell densities: 6500 SK-BR-3, 4000 SW-620, 2500 A-549, 10000 BT-474, 3000 Jurkat Clone E6-1, 5000 AU-565, 1250 FaDu, 1250 BxPC-3, 1000 HeLa, 7500 MV4-11, 1000 RAJI, 3000 Jurkat NucLight Red, and 4000 SK-OV-3 cells per well. After” for “After”
as §3

MV4-11 cells = experiment: as above; type: cell-based; details: Homo sapiens, free antifolate drugs, Table 1d
Procedure: as §5
as §4, with “Cells in complete growth medium were plated in 96-well plates (90 μL/well) and incubated at 37° C., 5% CO2 at the following cell densities: 6500 SK-BR-3, 4000 SW-620, 2500 A-549, 10000 BT-474, 3000 Jurkat Clone E6-1, 5000 AU-565, 1250 FaDu, 1250 BxPC-3, 1000 HeLa, 7500 MV4-11, 1000 RAJI, 3000 Jurkat NucLight Red, and 4000 SK-OV-3 cells per well. After” for “After”
as §3

RAJI cells = experiment: as above; type: cell-based; details: Homo sapiens, free antifolate drugs, Table 1d
Procedure: as §5
as §4, with “Cells in complete growth medium were plated in 96-well plates (90 μL/well) and incubated at 37° C., 5% CO2 at the following cell densities: 6500 SK-BR-3, 4000 SW-620, 2500 A-549, 10000 BT-474, 3000 Jurkat Clone E6-1, 5000 AU-565, 1250 FaDu, 1250 BxPC-3, 1000 HeLa, 7500 MV4-11, 1000 RAJI, 3000 Jurkat NucLight Red, and 4000 SK-OV-3 cells per well. After” for “After”
as §3

AU-565 cells = experiment: as above; type: cell-based, human; details: Homo sapiens, AU565, free antifolate drugs
Procedure: as §1, §2, §3

SW-620 cells = experiment: as above; type: cell-based; details: Homo sapiens, free antifolate drugs, Table 1a
Procedure: as §1, §4, §3

SK-OV-3 cells = experiment: as above; type: cell-based; details: Homo sapiens, free antifolate drugs, Table 1a
Procedure: as §1, §4, §3

[2] = SK-BR-3, 24 h, free antifolate drugs, Table 1d
[3] = SK-BR-3, free antifolate drugs, Table 1a

Structure (SMILES): Nc1ccc(C(=O)NCCC[C@H](NC(=O)c2ccc(CCc3ccc4nc(N)nc(N)c4c3F)cc2)C(=O)O)c(-c2nnn[nH]2)c1 [XG2, (S)-5-(4-Amino-2-(1H-tetrazol-5-yl)benzamido)-2-(4-(2-(2,4-diamino-5-fluoroquinazolin-6-yl)ethyl)benzamido)pentanoic acid]
- IC50 (BxPC-3 cells): 0.92 nM
- IC50 (FaDu cells): 0.31 nM
- IC50 ([1]; 24 h, Table 1d): 0.87 nM
- IC50 (SK-BR-3 cells; [2]): 0.9 nM

Structure (SMILES): Nc1ccc(C(=O)NCCC[C@H](NC(=O)c2ccc(CCc3ccc4nc(N)nc(N)c4c3)cc2)C(=O)O)cc1 [XJ4, (S)-5-(4-Aminobenzamido)-2-(4-(2-(2,4-diaminoquinazolin-6-yl)ethyl)benzamido)pentanoic acid]
- IC50 (BT-474 cells): 8.1 nM
- IC50 (A-549 cells): ~10 nM
- IC50 (SK-BR-3 cells; [3]): 3.4 nM
- antifolate activity, comparison in words (Human tumor cell lines): less active than talotrexin

Structure (SMILES): Nc1ccc(C(=O)NCCC[C@H](NC(=O)c2ccc(CCc3ccc4nc(N)nc(N)c4c3Cl)cc2)C(=O)O)c(-c2nnn[nH]2)c1 [XT123, (S)-5-(4-amino-2-(1H-tetrazol-5-yl)benzamido)-2-(4-(2-(2,4-diamino-5-chloroquinazolin-6-yl)ethyl)benzamido)pentanoic acid]
- IC50 (BxPC-3 cells): 0.71 nM
- IC50 (FaDu cells): 0.19 nM
- IC50 ([1]; 24 h, Table 1d): 0.79 nM
- IC50 ([1]; Table 1c): 0.6 nM
- IC50 (HeLa cells): 0.11 nM
- IC50 (MV4-11 cells): 0.62 nM
- IC50 (RAJI cells): 0.6 nM
- IC50 (AU-565 cells; Table 1c): 0.35 nM
- IC50 (SK-BR-3 cells; [2]): 0.63 nM
- IC50 (SK-BR-3 cells; SK-BR-3, free antifolate drugs, Table 1c): 0.44 nM

Structure (SMILES): Nc1ccc(C(=O)NCCC[C@H](NC(=O)c2ccc(CCc3cnc4nc(N)nc(N)c4n3)cc2)C(=O)O)cc1 [XX7, (S)-5-(4-Aminobenzamido)-2-(4-(2-(2,4-diaminopteridin-6-yl)ethyl)benzamido) pentanoic acid]
- IC50 (SW-620 cells): 2.8 nM
- IC50 (A-549 cells): 29 nM
- IC50 (SK-BR-3 cells; [3]): 6.5 nM
- antifolate activity, comparison in words (Human tumor cell lines): less active than talotrexin

Structure (SMILES): CN(Cc1cnc2nc(N)nc(N)c2n1)c1ccc(C(=O)N[C@@H](CCCNC(=O)c2ccc(N)cc2)C(=O)O)cc1 [XX12, (S)-5-(4-aminobenzamido)-2-(4-(((2,4-diaminopteridin-6-yl)methyl)(methyl)amino)benzamido) pentanoic acid]
- IC50 (SW-620 cells): 7.5 nM
- IC50 (A-549 cells): 42 nM
- IC50 (SK-BR-3 cells; [3]): 17 nM
- antifolate activity, comparison in words (Human tumor cell lines): less active than talotrexin

Structure (SMILES): Nc1ccc(C(=O)NCCC[C@H](NC(=O)c2ccc(NCc3cnc4nc(N)nc(N)c4n3)cc2)C(=O)O)c(-c2nn[nH]n2)c1 [XX35, (S)-5-(4-Amino-2-(2H-tetrazol-5-yl)benzamido)-2-(4-(((2,4-diaminopteridin-6-yl)methyl)amino)benzamido)pentanoic acid]
- IC50 (BT-474 cells): 4.3 nM
- IC50 ([1]; Table 1b): 1.4 nM
- IC50 (A-549 cells): ~2.5 nM
- IC50 (AU-565 cells; Table 1b): 0.62 nM
- IC50 (SK-BR-3 cells; [3]): 1.3 nM
- IC50 (SK-BR-3 cells; SK-BR-3, free antifolate drugs, Table 1b, # no full dose-response curve): 1.03 nM

Structure (SMILES): Nc1ccc(C(=O)NCCC[C@H](NC(=O)c2ccc(NCc3cnc4nc(N)nc(N)c4n3)cc2)C(=O)O)c(S(=O)(=O)O)c1 [XX37, (S)-5-(4-Amino-2-sulfobenzamido)-2-(4-(((2,4-diaminopteridin-6-yl)methyl)amino)benzamido) pentanoic acid]
- IC50 (BT-474 cells): 7.5 nM
- IC50 (A-549 cells): 4 nM
- IC50 (SK-BR-3 cells; [3]): 2.4 nM

Structure (SMILES): N#Cc1cc(N)ccc1-c1cn(CCC[C@H](NC(=O)c2ccc(NCc3cnc4nc(N)nc(N)c4n3)cc2)C(=O)O)nn1 [XX47, (S)-5-(4-(4-Amino-2-cyanophenyl)-1H-1,2,3-triazol-1-yl)-2-(4-(((2,4-diaminopteridin-6-yl)methyl)amino)benzamido)pentanoic acid]
- IC50 (BT-474 cells): ~100 nM
- IC50 (SK-OV-3 cells): > 100 nM
- IC50 (SK-BR-3 cells; [3]): ~14 nM
